Reference: PubChem BioAssay (NCI)
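Each compound was tested at five concentrations against cells in 96-well plates for 48 hours. TGI denotes the concentration required for complete inhibition of growth.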

Legend:
Assay in all cases: NCI-60 cell line screen, 48 h
786-0 renal = test system: 786-0 renal
A498 renal = test system: A498 renal
A549 NSCLC = test system: A549 NSCLC
ACHN renal = test system: ACHN renal
BT-549 breast = test system: BT-549 breast
CAKI-1 renal = test system: CAKI-1 renal
COLO 205 colon = test system: COLO 205 colon
DU-145 prostate = test system: DU-145 prostate
EKVX NSCLC = test system: EKVX NSCLC
HCT-116 colon = test system: HCT-116 colon
HCT-15 colon = test system: HCT-15 colon
HL-60(TB) leukemia = test system: HL-60(TB) leukemia
HOP-62 NSCLC = test system: HOP-62 NSCLC
HOP-92 NSCLC = test system: HOP-92 NSCLC
HS 578T breast = test system: HS 578T breast
HT29 colon = test system: HT29 colon
IGROV1 ovarian = test system: IGROV1 ovarian
K-562 leukemia = test system: K-562 leukemia
KM12 colon = test system: KM12 colon
LOX IMVI melanoma = test system: LOX IMVI melanoma
M14 melanoma = test system: M14 melanoma
MALME-3M melanoma = test system: MALME-3M melanoma
MCF7 breast = test system: MCF7 breast
MDA-MB-231 breast = test system: MDA-MB-231 breast
MDA-MB-435 = test system: MDA-MB-435
MDA-N = test system: MDA-N
MOLT-4 leukemia = test system: MOLT-4 leukemia
NCI-H226 lung = test system: NCI-H226 lung
NCI-H23 lung = test system: NCI-H23 lung
NCI-H460 lung = test system: NCI-H460 lung
NCI-H522 lung = test system: NCI-H522 lung
OVCAR-3 ovarian = test system: OVCAR-3 ovarian
OVCAR-4 ovarian = test system: OVCAR-4 ovarian
OVCAR-5 ovarian = test system: OVCAR-5 ovarian
OVCAR-8 ovarian = test system: OVCAR-8 ovarian
PC-3 prostate = test system: PC-3 prostate
RPMI-8226 leukemia = test system: RPMI-8226 leukemia
RXF 393 renal = test system: RXF 393 renal
SF-268 CNS = test system: SF-268 CNS
SF-295 CNS = test system: SF-295 CNS
SF-539 CNS = test system: SF-539 CNS
SK-MEL-28 melanoma = test system: SK-MEL-28 melanoma
SK-MEL-5 melanoma = test system: SK-MEL-5 melanoma
SK-OV-3 ovarian = test system: SK-OV-3 ovarian
SN12C renal = test system: SN12C renal
SNB-19 CNS = test system: SNB-19 CNS
SNB-75 CNS = test system: SNB-75 CNS
SR leukemia = test system: SR leukemia
SW-620 colon = test system: SW-620 colon
T-47D breast = test system: T-47D breast
TK-10 renal = test system: TK-10 renal
U251 CNS = test system: U251 CNS
UACC-62 melanoma = test system: UACC-62 melanoma
UO-31 renal = test system: UO-31 renal
CCRF-CEM leukemia = test system: CCRF-CEM leukemia
HCC-2998 colon = test system: HCC-2998 colon
SK-MEL-2 melanoma = test system: SK-MEL-2 melanoma
UACC-257 melanoma = test system: UACC-257 melanoma

Measured: TGI

CC(NC(=O)C(Cc1ccc(OC(=O)c2ccccc2)cc1)NC(=O)OC(C)(C)C)C(=O)NCC(=O)NC(Cc1ccccc1)NC(=O)OCc1ccccc1 (configuration not stated)
not listed: CCRF-CEM leukemia | HCC-2998 colon | SK-MEL-2 melanoma | UACC-257 melanoma
> 100 µM: all other assays above

CC1CC2=C(C1)C(C1(C)C(=O)CC3C(C1=O)C3(C)C)C(C)C2=O (configuration not stated)
> 100 µM: all assays above
